Measurements published in US20230002327A1, “SMALL-MOLECULE REGULATOR OF TLR8” (TSINGHUA UNIVERSITY, priority 2019, published 2023).

Columns and labels:
TLR8 = biological target: T1, TLR8 (Homo sapiens, UniProt Q9NR97); assay: Inhibition of R848-induced signaling in HEK-Blue hTLR8 cell line (Quanti-Blue); type: cell-based; conditions: HEK-Blue hTLR8 cell line; normalized, ligand+DMSO = 100% activity, untreated = 0%
T1 construct: host or cells: HEK-Blue hTLR8 (HEK293-derived SEAP reporter cells)
T1 sequence (Q9NR97 27-1041): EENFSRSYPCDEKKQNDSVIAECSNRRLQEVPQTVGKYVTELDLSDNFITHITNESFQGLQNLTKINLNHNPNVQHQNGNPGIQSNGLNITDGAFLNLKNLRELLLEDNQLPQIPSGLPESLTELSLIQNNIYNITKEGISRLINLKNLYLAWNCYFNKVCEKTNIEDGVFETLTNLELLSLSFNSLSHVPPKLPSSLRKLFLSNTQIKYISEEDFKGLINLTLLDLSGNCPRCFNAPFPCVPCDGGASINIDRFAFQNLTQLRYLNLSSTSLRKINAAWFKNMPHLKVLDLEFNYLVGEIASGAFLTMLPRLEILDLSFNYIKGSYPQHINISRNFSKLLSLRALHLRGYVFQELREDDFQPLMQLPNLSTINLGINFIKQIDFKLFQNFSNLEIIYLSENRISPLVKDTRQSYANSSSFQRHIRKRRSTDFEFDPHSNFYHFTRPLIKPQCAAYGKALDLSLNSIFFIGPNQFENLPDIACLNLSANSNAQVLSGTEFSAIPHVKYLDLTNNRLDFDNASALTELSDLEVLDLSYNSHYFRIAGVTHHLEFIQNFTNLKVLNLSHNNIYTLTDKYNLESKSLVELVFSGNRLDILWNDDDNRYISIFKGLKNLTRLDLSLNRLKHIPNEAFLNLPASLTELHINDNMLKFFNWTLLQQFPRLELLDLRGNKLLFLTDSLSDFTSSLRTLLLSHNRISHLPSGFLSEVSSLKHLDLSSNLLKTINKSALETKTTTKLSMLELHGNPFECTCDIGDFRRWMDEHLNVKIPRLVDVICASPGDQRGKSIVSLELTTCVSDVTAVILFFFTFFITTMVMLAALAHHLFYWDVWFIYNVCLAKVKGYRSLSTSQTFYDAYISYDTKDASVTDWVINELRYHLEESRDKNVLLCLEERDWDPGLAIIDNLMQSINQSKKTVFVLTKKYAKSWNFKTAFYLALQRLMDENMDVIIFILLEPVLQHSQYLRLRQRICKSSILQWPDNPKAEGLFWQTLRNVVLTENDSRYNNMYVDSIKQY
Experimental: (§1) HEK Blue hTLR8 cells or HEK Blue hTLR7 cells were cultured in DMEM medium supplemented with 10% fetal bovine serum, penicillin (100 U/mL) and streptomycin ([…]). Thereafter, cells were seeded in 96-well plate (45,000 cells per well), and were cultured for 24 hours in a humidified incubator (37° C., 5% CO2).
After 24 hours, the supernatant and suspending cells were aspirated and replaced with fresh serum-free DMEM.
(§2) After 24 hours, 50 μL of the medium was aspirated from each well and then added to a new 96-well plate, followed by the addition of 50 μL of Quanti-Blue in each well and the incubation at 37° C. in darkness. Changes in color would occur in the […] within 60 minutes, and the absorbance was measured at 620 nm by using the multi-mode plate reader Vrioskan Flash. Inhibition rate (%)=[R848 (OD620)−Compound (OD620)]/[R848 (OD620)−Control (OD620)]×100%. Among these, the control group was only added with the same amount of cells. Finally, the software Prism 6.0 was utilized to plot a graph and calculate IC50 values. Or, the activity of the cells treated with ligand and DMSO was defined as 100% activity, and the activity of the untreated cells was defined as 0% activity.

TLR7 = biological target: T2, TLR7 (Homo sapiens, UniProt Q9NYK1); assay: Inhibition of R848-induced signaling in HEK-Blue hTLR7 cell line (Quanti-Blue); type: cell-based
T2 construct: host or cells: HEK-Blue hTLR7 (HEK293-derived SEAP reporter cells)
T2 sequence (Q9NYK1 27-1049): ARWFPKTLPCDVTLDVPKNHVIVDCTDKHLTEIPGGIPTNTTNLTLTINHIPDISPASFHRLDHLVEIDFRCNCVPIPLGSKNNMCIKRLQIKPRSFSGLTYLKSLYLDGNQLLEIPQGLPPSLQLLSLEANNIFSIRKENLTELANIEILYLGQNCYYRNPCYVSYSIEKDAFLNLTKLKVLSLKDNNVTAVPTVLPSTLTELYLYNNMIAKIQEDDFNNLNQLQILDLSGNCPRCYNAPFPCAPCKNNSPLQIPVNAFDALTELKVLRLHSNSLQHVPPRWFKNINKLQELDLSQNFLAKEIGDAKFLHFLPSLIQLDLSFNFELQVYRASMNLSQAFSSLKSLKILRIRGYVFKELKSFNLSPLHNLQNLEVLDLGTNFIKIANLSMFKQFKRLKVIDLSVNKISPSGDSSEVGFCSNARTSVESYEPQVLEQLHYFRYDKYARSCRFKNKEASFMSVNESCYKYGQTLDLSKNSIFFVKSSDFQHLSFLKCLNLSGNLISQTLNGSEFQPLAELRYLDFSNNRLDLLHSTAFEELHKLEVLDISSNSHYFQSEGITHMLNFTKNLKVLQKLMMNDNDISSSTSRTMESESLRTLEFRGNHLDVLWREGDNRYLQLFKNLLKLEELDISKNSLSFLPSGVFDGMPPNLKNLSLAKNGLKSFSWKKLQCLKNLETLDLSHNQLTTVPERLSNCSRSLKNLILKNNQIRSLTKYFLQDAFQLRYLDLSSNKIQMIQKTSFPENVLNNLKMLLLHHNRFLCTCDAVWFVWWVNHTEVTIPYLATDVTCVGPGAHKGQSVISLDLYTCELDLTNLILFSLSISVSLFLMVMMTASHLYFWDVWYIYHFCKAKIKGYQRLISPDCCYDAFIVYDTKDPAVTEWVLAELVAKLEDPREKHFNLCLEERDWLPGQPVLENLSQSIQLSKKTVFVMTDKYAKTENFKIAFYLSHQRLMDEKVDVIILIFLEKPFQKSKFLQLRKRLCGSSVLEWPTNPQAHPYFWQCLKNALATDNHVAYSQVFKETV
Experimental: as §1
After 24 hours, the supernatant and suspending cells were aspirated and replaced with fresh serum-free DMEM. Cells were treated with 1 μg/mL of R848 (agonist of TLR7/8) or 5 μg/mL of ssRNA40/LyoVec or 5 μg/mL of ORN06/LyoVec (InvivoGen) and compounds with specified concentrations, and were placed in a humidified incubator (37° C., 5% CO2) for co-culture.
as §2

HEK-Blue hTLR8 cell line = assay: Toxicity test of compounds (CCK-8 cell viability); type: cell-based, human; parameters: key to WST1 (normalized toxicity effect): viability relative to control well (background-subtracted OD), 1 = control; conditions: normalized cell viability, HEK-Blue cell lines
Experimental: In the 96-well plate used for the above-mentioned activity test of compounds (remaining 50 μL of culture medium containing cells), 5 μL of CellCountingKit-8 (CCK-8) Supermix was added to each well. Note that the introduction of air bubbles into the wells should be avoided since the air bubbles would interfere with the detection of OD value.
The culture plate was incubated in an incubator for 1 to 4 hours,
The edge of the 96-well plate could be tapped gently before reading the plate, and then the absorbance at 450 nm was measured by using the multi-mode plate reader.
Cell viability (%) was determined using the following formula: cell viability (%)=([Compound well ([…])−Background well (OD450)]/[Control well ([…])−Background well (OD450)])×100%. Among these, the background well was only added with the medium and CCK-8 reagent, the control well was only added with the medium, cells, R848 and CCK-8, and the compound wells were added with the medium, cells, R848, compounds in different concentrations, and CCK-8.

Structure (SMILES) | Remaining R848-induced TLR8 signaling (normalized activity; ligand+DMSO = 1, untreated = 0) (TLR8) | TLR7 (normalized inhibitory effect on R848-induced signaling) (TLR7) | WST1 (normalized toxicity effect) (HEK-Blue hTLR8 cell line)
CCOCc1nc(C#N)c(-c2ccccc2)n1CC(C)(C)O [Compound 38, 2-(ethoxymethyl)-1-(2-hydroxy-2-methylpropyl)-5-phenyl-1H-imidazole-4-carbonitrile] | 1.1 ± 0.2 | 1.0 ± 0.2 | 0.7 ± 0.3
CCOCc1nc(C(=N)N)c(-c2ccccc2)n1CC(C)(C)O [Compound 39, 2-(ethoxymethyl)-1-(2-hydroxy-2-methylpropyl)-5-phenyl-1H-imidazole-4-carboxamidine] | 1.0 ± 0.2 | 0.8 ± 0.1 | 0.7 ± 0.2
CCOCc1nc(C(N)=O)c(-c2ccccc2)n1CC(C)(C)O [Compound 40, 2-(ethoxymethyl)-1-(2-hydroxy-2-methylpropyl)-5-phenyl-1H-imidazole-4-carboxamide] | 0.7 ± 0.1 | 1.0 ± 0.1 | 0.8 ± 0.3
CCOCc1nc(C=O)c(-c2ccccc2)n1CC(C)(C)O [Compound 41, 2-(ethoxymethyl)-1-(2-hydroxy-2-methylpropyl)-5-phenyl-1H-imidazole-4-carbaldehyde] | 1.2 + 0.2 | 1.1 ± 0.2 | 0.7 ± 0.2
CCOCc1nc(C(=O)OC)c(-c2ccccc2)n1CC(C)(C)O [Compound 42, methyl 2-(ethoxymethyl)-1-(2-hydroxy-2-methylpropyl)-5-phenyl-1H-imidazole-4-carboxylate] | 0.9 ± 0.2 | 0.9 ± 0.2 | 0.9 ± 0.1
CCOCc1nc(CO)c(-c2ccccc2)n1CC(C)(C)O [Compound 43, 1-[2-(ethoxymethyl)-4-(hydroxymethyl)-5-phenyl-1H-imidazole-1-yl]-2-methylpropan-2-ol] | 1.0 ± 0.2 | 0.9 ± 0.2 | 0.8 ± 0.1
CCOCc1nc(COC)c(-c2ccccc2)n1CC(C)(C)O [Compound 44, 1-[2-(ethoxymethyl)-4-(methoxymethyl)-5-phenyl-1H-imidazole-1-yl]-2-methylpropan-2-ol] | 1.0 ± 0.3 | 0.9 ± 0.2 | 0.8 ± 0.2
CCOCc1nc(C)c(-c2ccccc2)n1CC(C)(C)O [Compound 45, 1-[2-(ethoxymethyl)-4-methyl-5-phenyl-1H-imidazole-1-yl]-2-methylpropan-2-ol] | 0.8 ± 0.2 | 0.9 ± 0.1 | 0.8 ± 0.3
CCOCc1nc(CF)c(-c2ccccc2)n1CC(C)(C)O [Compound 46, 1-[2-(ethoxymethyl)-4-(fluoromethyl)-5-phenyl-1H-imidazole-1-yl]-2-methylpropan-2-ol] | 1.0 ± 0.2 | 0.8 ± 0.2 | 0.9 ± 0.3
CCOCc1nc(C(C)C)c(-c2ccccc2)n1CC(C)(C)O [Compound 48, 1-[2-(ethoxymethyl)-5-phenyl-4-(prop-2-yl)-1H-imidazole-1-yl]-2-methylpropan-2-ol] | 0.9 ± 0.2 | 0.7 ± 0.1 | 0.8 ± 0.3
CCOCc1ncc(-c2ccccc2)n1CC(C)(C)O [Compound 50, 1-[2-(ethoxymethyl)-5-phenyl-1H-imidazole-1-yl]-2-methylpropan-2-ol] | 1.1 ± 0.3 | 1.0 ± 0.1 | 0.9 ± 0.2
CCOCc1nc(Cl)c(-c2ccccc2)n1CC(C)(C)O [Compound 51, 1-[4-chloro-2-(ethoxymethyl)-5-phenyl-1H-imidazole-1-yl]-2-methylpropan-2-ol] | 0.6 ± 0.1 | 1.1 ± 0.2 | 0.9 ± 0.2
CCOCc1nc(Br)c(-c2ccccc2)n1CC(C)(C)O [Compound 52, 1-[4-bromo-2-(ethoxymethyl)-5-phenyl-1H-imidazole-1-yl]-2-methylpropan-2-ol] | 0.3 ± 0.2 | 0.8 ± 0.2 | 1.1 ± 0.3
